# From patent US20230285477A1, “MICROBIAL THERAPY” (BEO THERAPEUTICS, priority 2020, published 2023)
# Key:
# uricase = assay: Bacterial uricase activity (Amplex Red Uric Acid/Uricase Assay Kit); type: biochemical; settings: mean average of all strains of the species; 2% uric acid in medium; fluorescence after 30 min; positive control 20 mM H2O2
# Experimental: Bacterial strains were evaluated for uricase catalytic activity. Prior to the assay, 1/100th volume from the glycerol stocks (example 1) was added to the microtiter plate containing appropriate medium (see overview). Culturing conditions (time, temperature, medium, aerobic or anaerobic) depend on species and can be found in Table 1. Uric acid was dissolved in medium to 2% and the medium was filter sterilized (therefore uric acid was immediately present in the medium upon culturing). Growth of the bacterial strains was assessed by visual examination (the level of viscosity of the medium) before harvesting for fluorescence measurement. […]
# The enzyme assay, Amplex® Red Uric Acid/Uricase Assay Kit; Catalog No. A22181; Molecular Probes, was used according to the instructions of the manufacturer. Fluorescence readouts were determined after 30 min using excitation at 530±12.5 nm and fluorescence detection at 590±17.5 nm. […]
# The activity of the strains listed in Table 1 was determined, as described in Examples 2 and 3, as percentage of maximal fluorescence from positive controls (Bifidobacterium breve strain ATCC 15701 was used as positive control for the screems according to Example 2 and 20 mM H2O2 solution was used as positive control for the screems according to Example 3). […]
# [1] = tested on: hyperuricemia mouse model; assay: Hyperuricemia mouse model (high-purine diet + potassium oxonate), serum uric acid; type: in vivo, mice; settings: FIG. 9; normal range 40-65
# From the text: 6-10 weeks old mice are randomly divided into groups of 10 mice as follows, using 1.0×10^8-1010 CFU for the test product: • 1) Control group • 2) Allopurinol treatment group • 3) Microbial treatment group 1: Test product is bacterial strain BEO #104 • 4) Microbial treatment group 2: Test product is bacterial strain BEO #110 • 5) Microbial treatment group 4: Test product is bacterial strain BEO #227 • 6) Microbial treatment group 6: Test product is mix of bacterial strains BEO #110+BEO #227
# The control group is fed a normal diet (laboratory chow and water ad libitum) and treated with saline (0.5 ml, sodium chloride solution in water) by intragastric administration once a day. The other groups are fed a high-purine diet (laboratory high-purine chow and water ad libitum) and administered an intraperitoneal injection of potassium oxonate 300 mg/kg once a day. The microbial treatment groups are treated daily with approximately 1.0×10^9 CFU/day by intragastric administration. The strains tested all have QPS status and they are produced and formulated under laboratory conditions.
# Mice are weighed day −1 for determination of mean weight of animals in the experiment and for composition of groups. […]
# Serum is collected once weekly and at the end of experiment. […] Serum is analysed for uric acid concentration.
# patients = patients treated with allopurinol; cited from earlier work
Uricase activity: Inhibitory activity (uricase),Molecule,serum urate concentration over a 23-hour treatment cycle [1],patients treated reaching the treatment target (patients)
low (low (5-30% of positive control)),Lactobacillus plantarum,,
,Oc1ncnc2[nH]ncc12 [allopurinol],large fluctuations in serum urate outside the normal range,30-40%
